In assay [1] the target is T1, purified human ALDH1A3 (Homo sapiens, UniProt P47895).
T1 construct: made in house; host or cells: BL21-DE3 E. coli
Description: Nanoscale differential scanning fluorimetry (DSF). Format: binding. The settings on record: 10 and 100 μM. (In general: In DSF a fluorescence change marks the thermal transition of the protein.)

For assay [2], the system named is panel of cancer cell lines. The assay can be described thus: 48 h proliferation, WST-8 tetrazolium dye assay. To be noted: 48-h proliferation assays, 23 cell lines. The class given is cell-based, human.
The target of assay [3] is T2, ALDH1A3 in MCF7 or SUM159-M1a-ALDH1A3 knockout cells (Homo sapiens, UniProt P47895).
T2 construct: expressed in transfected cells; host or cells: MCF7 wild-type; SUM159-M1a-ALDH1A3 knockout
T2 sequence (P47895 whole entry): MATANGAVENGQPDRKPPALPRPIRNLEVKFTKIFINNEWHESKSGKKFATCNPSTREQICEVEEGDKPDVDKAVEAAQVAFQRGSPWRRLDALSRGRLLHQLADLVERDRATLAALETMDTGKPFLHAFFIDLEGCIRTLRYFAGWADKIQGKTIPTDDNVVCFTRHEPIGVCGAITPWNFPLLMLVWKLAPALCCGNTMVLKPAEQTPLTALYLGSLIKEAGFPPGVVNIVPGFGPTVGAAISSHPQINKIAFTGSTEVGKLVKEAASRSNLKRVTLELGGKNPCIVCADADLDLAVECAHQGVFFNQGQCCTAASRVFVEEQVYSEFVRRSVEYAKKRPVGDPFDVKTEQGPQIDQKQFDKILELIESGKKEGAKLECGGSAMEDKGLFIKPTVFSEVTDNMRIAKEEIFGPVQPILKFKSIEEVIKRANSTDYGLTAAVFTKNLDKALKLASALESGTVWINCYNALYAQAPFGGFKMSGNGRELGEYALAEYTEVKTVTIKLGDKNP
The assay can be described thus: Aldefluor dose titration, cells with ectopic ALDH1A3. Format: cell-based. Here is the method: Next, we developed three orthogonal methods to assess MBE1.5 selectivity and potency in cellular assays, as these cellular assays provide a more physiologically relevant method to assess target engagement and specificity. […] We confirmed expression of each enzyme and then performed a dose titration of the Aldefluor assay in each cell derivative with MBE1.5. […] Therefore, we performed thermal proteome profiling (TPP) on A375 melanoma cells exposed to DMSO, 100 nM MBE1, and 1 μM MBE1. […] These two doses would be expected to saturate ALDH1A3 binding based on the biochemical affinity while the high dose may be expected to identify potential MBE1 off-targets. […] We next assessed for melting point changes in the dataset using a 1.5°C cutoff and p < 0.05; 112 proteins were identified in the comparison between 100 nM MBE1 and DMSO, including ALDH1A3. […] Finally, we validated that MBE1.5 blocked the physiological function of ALDH1A3 by testing a dose titration of MBE1.5 in the retinoid inhibition assay using MCF7-ALDH1A3 cell-based readout.
In addition, cells were suspended at a concentration of 100,000 cells per mL. […] Cells were analyzed by a BD LSRII for flow cytometry and were sorted using a FACSAria Fusion cell sorter (BD Biosciences) equipped with a 70 micron nozzle. […]

In assay [4] the test system is LN229 cells. Description: Metabolomic profiling of treated cell lines (raw metabolite counts). The class given is cell-based, human. To be noted: LN229:MBE, replicates. An excerpt:
Supplement mmc8.xlsx, sheet "Supplement Table 7" | column: LN229:MBE

Assay [5] addresses Eta antagonist (Homo sapiens, UniProt P25101). The assay can be described thus: Off-target profiling panel. The class given is cell-based. To be noted: read-out: Inhibition by MBE1 at 10 μM (%).
The target of assay [6] is COX1 (Homo sapiens, UniProt P23219). Description: Off-target profiling panel. Format: biochemical. To be noted: read-out: Inhibition by MBE1 at 10 μM (%).
Chain of COX1 (P23219 24-599): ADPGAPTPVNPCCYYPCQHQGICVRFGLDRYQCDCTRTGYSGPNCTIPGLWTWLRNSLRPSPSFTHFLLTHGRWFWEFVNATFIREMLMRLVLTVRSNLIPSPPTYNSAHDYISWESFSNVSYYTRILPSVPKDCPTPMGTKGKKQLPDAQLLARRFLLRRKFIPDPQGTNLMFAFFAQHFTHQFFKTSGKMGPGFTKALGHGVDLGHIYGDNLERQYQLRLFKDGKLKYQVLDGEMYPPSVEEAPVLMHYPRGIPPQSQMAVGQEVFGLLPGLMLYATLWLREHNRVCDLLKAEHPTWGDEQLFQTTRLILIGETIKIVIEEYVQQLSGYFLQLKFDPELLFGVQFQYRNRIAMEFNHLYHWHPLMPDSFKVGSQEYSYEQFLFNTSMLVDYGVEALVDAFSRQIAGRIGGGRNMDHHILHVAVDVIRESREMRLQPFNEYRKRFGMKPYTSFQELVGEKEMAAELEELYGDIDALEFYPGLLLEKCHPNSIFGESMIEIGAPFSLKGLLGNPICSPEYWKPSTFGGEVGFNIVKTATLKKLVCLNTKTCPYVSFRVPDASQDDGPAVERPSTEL
For assay [7], the target named is NET (Homo sapiens, UniProt P23975). Description: Off-target profiling panel. Format: binding. The settings on record: read-out: Inhibition by MBE1 at 10 μM (%).
Chain of NET (P23975 whole entry): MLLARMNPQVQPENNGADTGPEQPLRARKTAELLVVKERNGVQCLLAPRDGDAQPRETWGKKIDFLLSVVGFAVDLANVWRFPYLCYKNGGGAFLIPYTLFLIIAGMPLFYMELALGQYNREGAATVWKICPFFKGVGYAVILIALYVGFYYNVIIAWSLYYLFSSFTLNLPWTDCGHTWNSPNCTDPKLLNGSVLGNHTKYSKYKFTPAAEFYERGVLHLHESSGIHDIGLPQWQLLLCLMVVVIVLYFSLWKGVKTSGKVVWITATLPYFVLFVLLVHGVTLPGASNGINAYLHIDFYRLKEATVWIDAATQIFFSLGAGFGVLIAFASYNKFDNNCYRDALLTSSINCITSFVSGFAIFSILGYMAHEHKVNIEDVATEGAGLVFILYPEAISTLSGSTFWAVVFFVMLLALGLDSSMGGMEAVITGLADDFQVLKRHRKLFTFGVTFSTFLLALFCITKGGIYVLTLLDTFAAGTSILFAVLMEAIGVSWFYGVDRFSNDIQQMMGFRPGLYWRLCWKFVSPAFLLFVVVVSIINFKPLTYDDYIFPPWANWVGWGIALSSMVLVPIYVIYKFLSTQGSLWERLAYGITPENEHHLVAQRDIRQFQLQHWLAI
Assay [8] addresses 5HT2A (Homo sapiens, UniProt P28223). Description: Off-target profiling panel. Format: binding. The settings on record: read-out: Inhibition by MBE1 at 10 μM (%).
Assay [9] deals with Alpha1A (Homo sapiens, UniProt P35348). The assay can be described thus: Off-target profiling panel. Format: binding. The settings on record: read-out: Inhibition by MBE1 at 10 μM (%).
Chain of Alpha1A (P35348 whole entry): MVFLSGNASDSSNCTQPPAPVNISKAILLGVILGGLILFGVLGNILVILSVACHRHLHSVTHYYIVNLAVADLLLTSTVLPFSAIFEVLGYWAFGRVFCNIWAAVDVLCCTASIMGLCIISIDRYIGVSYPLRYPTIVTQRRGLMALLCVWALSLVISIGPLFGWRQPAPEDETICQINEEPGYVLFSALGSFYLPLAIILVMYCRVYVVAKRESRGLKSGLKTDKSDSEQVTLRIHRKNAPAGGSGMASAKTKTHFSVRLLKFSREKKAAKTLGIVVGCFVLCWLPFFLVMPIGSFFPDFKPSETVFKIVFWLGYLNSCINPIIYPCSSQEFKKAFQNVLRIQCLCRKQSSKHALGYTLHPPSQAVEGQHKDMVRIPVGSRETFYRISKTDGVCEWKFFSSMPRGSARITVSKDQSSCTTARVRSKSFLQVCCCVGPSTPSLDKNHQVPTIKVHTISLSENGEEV
The target of assay [10] is D2 (Homo sapiens, UniProt P14416). Description: Off-target profiling panel. To be noted: read-out: Inhibition by MBE1 at 10 μM (%). Format: binding.
Chain of D2 (P14416 whole entry): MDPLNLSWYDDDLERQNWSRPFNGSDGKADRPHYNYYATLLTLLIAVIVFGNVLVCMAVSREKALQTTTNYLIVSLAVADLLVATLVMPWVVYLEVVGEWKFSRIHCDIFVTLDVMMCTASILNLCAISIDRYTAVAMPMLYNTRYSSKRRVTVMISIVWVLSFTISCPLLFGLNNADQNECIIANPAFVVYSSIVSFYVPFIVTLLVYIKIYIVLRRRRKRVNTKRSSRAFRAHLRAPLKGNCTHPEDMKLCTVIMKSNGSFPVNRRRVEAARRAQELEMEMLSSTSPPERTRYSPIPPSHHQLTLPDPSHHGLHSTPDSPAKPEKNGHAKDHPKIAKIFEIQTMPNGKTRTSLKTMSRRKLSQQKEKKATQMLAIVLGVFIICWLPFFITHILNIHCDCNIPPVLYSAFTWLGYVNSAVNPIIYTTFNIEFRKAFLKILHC
Assay [11] has as its system NMDA. Description: Off-target profiling panel. Format: binding. The settings on record: 10 μM.

We go through two compounds from paper PMC12595434, “Development of retinoid nuclear receptor pathway antagonists through targeting aldehyde dehydrogenase 1A3” (iScience, 2025).

The structures appear in SMILES notation. Where “and” joins values, the source holds several entries; their conditions need not be identical. Equal entries are not always repeated.

Chain of Eta antagonist (P25101 21-427): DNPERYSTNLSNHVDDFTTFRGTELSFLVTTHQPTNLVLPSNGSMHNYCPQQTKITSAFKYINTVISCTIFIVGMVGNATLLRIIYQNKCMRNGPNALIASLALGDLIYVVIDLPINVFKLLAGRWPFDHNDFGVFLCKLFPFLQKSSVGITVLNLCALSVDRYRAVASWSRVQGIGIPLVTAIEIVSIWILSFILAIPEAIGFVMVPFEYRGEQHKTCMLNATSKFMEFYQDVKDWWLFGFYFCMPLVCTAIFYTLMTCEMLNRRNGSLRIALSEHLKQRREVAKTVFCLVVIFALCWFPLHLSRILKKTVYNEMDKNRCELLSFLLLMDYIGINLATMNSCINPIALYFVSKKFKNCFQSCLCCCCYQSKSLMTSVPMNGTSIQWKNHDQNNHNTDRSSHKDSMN
T1 sequence (P47895 whole entry): as the sequence (P47895 whole entry) above
Chain of 5HT2A (P28223 whole entry): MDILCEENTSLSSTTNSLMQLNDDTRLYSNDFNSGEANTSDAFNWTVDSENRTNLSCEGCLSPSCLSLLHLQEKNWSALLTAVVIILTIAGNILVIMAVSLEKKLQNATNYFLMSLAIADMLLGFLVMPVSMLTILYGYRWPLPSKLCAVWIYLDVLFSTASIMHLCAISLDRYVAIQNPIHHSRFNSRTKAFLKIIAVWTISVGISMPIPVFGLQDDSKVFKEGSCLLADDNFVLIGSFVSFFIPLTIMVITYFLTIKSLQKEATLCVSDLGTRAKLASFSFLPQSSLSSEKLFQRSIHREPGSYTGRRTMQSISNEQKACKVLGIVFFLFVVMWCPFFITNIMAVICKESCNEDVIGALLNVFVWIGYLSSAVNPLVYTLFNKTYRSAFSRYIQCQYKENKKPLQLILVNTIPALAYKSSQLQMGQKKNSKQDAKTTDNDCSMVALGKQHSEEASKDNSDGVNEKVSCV

As to `CCc1ccccc1C(=O)Nc1cc2c(cc1F)NC(=O)CC2` [MBE1.5, 2-ethyl-N-(7-fluoro-2-oxo-3,4-dihydro-1H-quinolin-6-yl)benzamide], the “thermal stabilization of purified ALDH1A3” value in [1] is > 8.5 °C. Also, the “effect on growth or survival (in words)” value in assay [2] was “no detectable effect”. Further, the “inhibition of ALDH1A3 in Aldefluor assay (in words)” value in [3] is recorded as “high potency”.

The inhibition is the relative decrease from the control value, in per cent. `CCc1cnccc1C(=O)Nc1cc2c(cc1F)NC(=O)CC2` [MBE1, 3-ethyl-N-(7-fluoro-2-oxo-3,4-dihydro-1H-quinolin-6-yl)pyridine-4-carboxamide]: in assay [4], the “Raw counts of 2-Hydroxybutyric acid” value is 261573 and 302862 and 279756; the “Raw counts of 3-Hydroxybutyric acid” value was 1309454 and 1164963 and 1206122; the “Raw counts of 3-Phosphoglycerate” value is 11596.7 and 6745.18 and 3724.31; the “Raw counts of 3-Phosphoserine” value was 6232.78 and 2797.63 and 5215.65. Moreover, in [4], the “Raw counts of 6-Phosphogluconate” value is 5157.27 and 5734.83 and 2668.31; the “Raw counts of Carbamoyl phosphate” value was 45195.2 and 38665.3 and 41961.6; the “Raw counts of Citrulline” value was 498544 and 479590 and 504161; the “Raw counts of Cytidine” value was 67589.2 and 84265.7 and 71881.1. Moreover, in assay [4], the “Raw counts of Hypoxanthine” value was 1333474 and 1740688 and 1516660; the “Raw counts of Isoleucine” value was 1.29E+08 and 1.33E+08 and 1.18E+08; the “Raw counts of Lactate” value is 3.62E+08 and 3.37E+08 and 3.31E+08; the “Raw counts of Leucine” value was 1.02E+08 and 1.11E+08 and 1.01E+08. In assay [4], the “Raw counts of Methionine” value was 1.89E+07 and 2.12E+07 and 1.99E+07; the “Raw counts of N-acetyl-glutamine” value was 31448.3 and 20555.9 and 36320.3; the “Raw counts of Orotate” value was 0; the “Raw counts of Phenylalanine” value is 7.59E+07 and 8.45E+07 and 7.68E+07. Besides, in [4], the “Raw counts of Phosphoenolpyruvate” value is 0 and 2071.2 and 2356.81; the “Raw counts of Pyridoxine” value is 4.91E+07 and 5.30E+07 and 4.89E+07; the “Raw counts of Pyruvate” value was 2231037 and 2192759 and 1890595; the “Raw counts of Ribitol” value was 1641581 and 2032681 and 3007411. In assay [4], the “Raw counts of Sorbitol” value is 2.02E+07 and 2.14E+07 and 2.12E+07; the “Raw counts of Taurine” value was 1.22E+07 and 1.24E+07 and 1.15E+07; the “Raw counts of Tryptophan” value was 1.21E+07 and 1.27E+07 and 1.15E+07; the “Raw counts of Tyrosine” value is 4.34E+07 and 4.46E+07 and 4.65E+07. Moreover, in assay [4], the “Raw counts of UDP” value was 108325 and 86766.9 and 84670.8; the “Raw counts of Uracil” value was 1116835 and 1114912 and 1017401; the “Raw counts of Uridine” value was 932418 and 1052824 and 956012; the “Raw counts of Valine” value is 6.74E+07 and 7.26E+07 and 6.71E+07. Moreover, the “Raw counts of Xanthine” value in [4] is 9846835 and 1.10E+07 and 1.04E+07. Moreover, the inhibition at 10 µM in assay [5] was 4.57%. In addition, the inhibition at 10 µM in assay [6] was -2.65%. Further, the inhibition at 10 µM in [7] is -19.9%. In addition, the inhibition at 10 µM in [8] is -16.1%. Moreover, in assay [9], the inhibition at 10 µM was -3.34%. Also, the inhibition at 10 µM in assay [10] is 1.45%. For the same compound, the “Inhibition by MBE1 at 10 μM (%)” value in assay [11] is listed as −13.59%.
